Measured values from patent US9624218B2 (Eli Lilly and Company, priority 2014, dated 2017).
Several values for one entry are separate records, joined by “and”; a condition that tells them apart may be missing. Equal values may be shown once. Read-outs that look alike come from different tables or passages of the source.

How the values were obtained:
[1] = system: Wnt-inducible genes (TCF/LEF luciferase reporter in DLD-1 TOPFlash cells); assay: cells; settings: Homo sapiens, DLD-1, 24 h, read-out: Wnt-inducible gene expression inhibition IC50, DLD-1 TOPFlash cells, 24 hours; Mean ± SEM
[2] = system: EGFP-Axin2 fusion protein; settings: read-out: Axin2 Stabilization EC50; HEK293 EGFP-Axin2 cells, 24 hours; Mean ± SEM
[3] = system: Wnt-inducible genes (TCF/LEF luciferase reporter in DLD-1 TOPFlash cells); settings: read-out: Wnt-inducible gene expression inhibition IC50, 24 hours, Mean ± SEM
HPAF-II cells = assay: cells; settings: Homo sapiens, read-out: % Inhibition of Colony Formation
A549 cells = assay: cells; settings: Homo sapiens, read-out: % Inhibition of Colony Formation
Panc 04.03 cells = settings: 11 days
[4] = system: C57BL/6J-Apc^Min/J strain mice; assay: In vivo antitumor activity, intestinal polyps; settings: 25 mg/kg BID, 60 consecutive days, small intestine
Source text: C57BL/6J-Apc^Min/J strain mice carry a truncating mutation at codon 850 of the Apc gene and develop intestinal polyps and colorectal neoplasms at the age of 3-6 months. Truncation in the APC gene leads to activation of the Wnt signaling pathway and elevated levels of β catenin are frequently detected in pre-neoplastic/neoplastic lesions in these mice.
At the end of the treatment period, the animals are sacrificed and the number of polyps in the small intestine is counted under a dissection microscope.

Capan-2 cells = assay: cells; settings: Homo sapiens, read-out: % Inhibition of Colony Formation
hTNKS1 = hTNKS1 (Homo sapiens (Human), UniProt O95271); assay: hTNKS1 enzyme activity ELISA (poly ADP ribose incorporation into TRF1); type: biochemical; settings: Mean ± SEM
Chain of hTNKS1 (O95271 whole entry, change not shown): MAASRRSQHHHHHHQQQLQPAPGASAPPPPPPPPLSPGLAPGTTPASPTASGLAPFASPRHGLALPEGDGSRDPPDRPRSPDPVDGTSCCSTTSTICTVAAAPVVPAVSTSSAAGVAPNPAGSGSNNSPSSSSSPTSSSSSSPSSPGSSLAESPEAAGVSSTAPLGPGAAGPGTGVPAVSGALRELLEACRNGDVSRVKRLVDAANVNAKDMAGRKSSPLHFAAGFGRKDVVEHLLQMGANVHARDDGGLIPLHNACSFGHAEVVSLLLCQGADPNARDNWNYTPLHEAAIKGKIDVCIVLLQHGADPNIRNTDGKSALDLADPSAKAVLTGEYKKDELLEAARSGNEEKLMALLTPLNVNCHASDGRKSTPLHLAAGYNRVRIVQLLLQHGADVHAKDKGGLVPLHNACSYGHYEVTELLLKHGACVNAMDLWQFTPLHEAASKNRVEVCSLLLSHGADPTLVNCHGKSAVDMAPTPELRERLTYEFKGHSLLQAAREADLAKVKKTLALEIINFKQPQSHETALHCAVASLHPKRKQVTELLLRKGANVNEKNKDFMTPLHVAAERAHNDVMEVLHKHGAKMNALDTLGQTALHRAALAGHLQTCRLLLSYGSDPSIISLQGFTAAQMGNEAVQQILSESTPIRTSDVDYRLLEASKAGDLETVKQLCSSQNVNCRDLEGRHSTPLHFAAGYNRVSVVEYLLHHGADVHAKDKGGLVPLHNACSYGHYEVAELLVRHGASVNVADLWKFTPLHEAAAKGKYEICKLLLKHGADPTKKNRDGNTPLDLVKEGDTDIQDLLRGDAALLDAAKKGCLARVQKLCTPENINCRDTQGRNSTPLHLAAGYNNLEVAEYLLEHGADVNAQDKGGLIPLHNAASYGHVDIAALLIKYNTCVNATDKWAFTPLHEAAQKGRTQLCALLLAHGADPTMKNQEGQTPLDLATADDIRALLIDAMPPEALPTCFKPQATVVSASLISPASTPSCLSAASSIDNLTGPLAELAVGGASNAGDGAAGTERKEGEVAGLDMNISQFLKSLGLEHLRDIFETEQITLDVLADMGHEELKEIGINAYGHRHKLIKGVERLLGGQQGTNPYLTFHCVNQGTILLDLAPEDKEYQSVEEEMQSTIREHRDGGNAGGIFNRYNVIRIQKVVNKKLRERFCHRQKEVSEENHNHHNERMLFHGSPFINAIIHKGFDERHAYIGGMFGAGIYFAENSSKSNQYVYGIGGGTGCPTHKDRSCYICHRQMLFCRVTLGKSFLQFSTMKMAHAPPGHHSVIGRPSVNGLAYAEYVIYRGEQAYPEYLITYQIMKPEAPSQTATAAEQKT

CC(c1ncccn1)N1CCN(c2nc3c(c(=O)[nH]2)CCCN3C)CC1 (racemic) [Example 7, 8-Methyl-2-[4-(1-pyrimidin-2-ylethyl)piperazin-1-yl]-3,5,6,7-tetrahydropyrido[2,3-d]pyrimidin-4-one]
IC50 [1]: 14.6 nM | EC50 [2]: 121 nM

CC(c1ncccn1)N1CCN(c2nc3c(c(=O)[nH]2)CCCN3C)CC1 (single isomer, unassigned; isomer 1) [Example 8, 8-Methyl-2-[4-(1-pyrimidin-2-ylethyl)piperazin-1-yl]-3,5,6,7-tetrahydropyrido[2,3-d]pyrimidin-4-one, Isomer 1]
IC50 [1]: 18.4 nM | EC50 [2]: 71.5 nM

CC(c1ncccn1)N1CCN(c2nc3c(c(=O)[nH]2)CCCN3C)CC1 (single isomer, unassigned; isomer 2) [Example 9, 8-Methyl-2-[4-(1-pyrimidin-2-ylethyl)piperazin-1-yl]-3,5,6,7-tetrahydropyrido[2,3-d]pyrimidin-4-one, Isomer 2]
EC50 [2]: 70.9 nM | IC50 [3]: 28.2 nM

CCC(c1ncccn1)N1CCN(c2nc3c(c(=O)[nH]2)CCCN3C)CC1 (single isomer, unassigned; isomer 2) [Example 12, 8-Methyl-2-[4-(1-pyrimidin-2-ylpropyl)piperazin-1-yl]-3,5,6,7-tetrahydropyrido[2,3-d]pyrimidin-4-one, Isomer 2]
EC50 [2]: 122 nM | IC50 [3]: 19.5 nM

CN1CCCc2c1nc(N1CCN(Cc3ncccn3)CC1)[nH]c2=O [Example 1, 8-Methyl-2-[4-(pyrimidin-2-ylmethyl)piperazin-1-yl]-3,5,6,7-tetrahydropyrido[2,3-d]pyrimidin-4-one]
inhibition at 0.03 µM (HPAF-II cells): 2.44% | inhibition at 0.11 µM (HPAF-II cells): 40.5% | inhibition at 0.33 µM (HPAF-II cells): 61.6% | inhibition at 1 µM (HPAF-II cells): 85.2% | inhibition at 3 µM (HPAF-II cells): 88.2% | inhibition at 0.03 µM (A549 cells): 25.5% | inhibition at 0.11 µM (A549 cells): 46.5% | inhibition at 0.33 µM (A549 cells): 54.2% | inhibition at 1 µM (A549 cells): 74.3% | inhibition at 3 µM (A549 cells): 72.1% | % Inhibition of Colony Formation (Panc 04.03 cells; Panc 04.03, 0.03 μM): −34.35% | % Inhibition of Colony Formation (Panc 04.03 cells; Panc 04.03, 0.11 μM): 51.39% | % Inhibition of Colony Formation (Panc 04.03 cells; Panc 04.03, 0.33 μM): 92.79% | % Inhibition of Colony Formation (Panc 04.03 cells; Panc 04.03, 1 μM): 92.51% | % Inhibition of Colony Formation (Panc 04.03 cells; Panc 04.03, 3 μM): 90.03% | IC50 [1]: 13.2 nM | EC50 [2]: 65.9 nM | Average Number of polyps per Animal [4]: statistically significant lower number of tumors and 4.3 ± 0.70 | inhibition at 0.03 µM (Capan-2 cells): -20.8% | inhibition at 0.11 µM (Capan-2 cells): 18% | inhibition at 0.33 µM (Capan-2 cells): 55.9% | inhibition at 1 µM (Capan-2 cells): 63.9% | inhibition at 3 µM (Capan-2 cells): 70.7%

CN1CCCc2c1nc(N1CCN(Cc3ncccc3Cl)CC1)[nH]c2=O [Example 2, 2-[4-[(3-Chloro-2-pyridyl)methyl]piperazin-1-yl]-8-methyl-3,5,6,7-tetrahydropyrido[2,3-d]pyrimidin-4-one]
IC50 [1]: 8.17 nM | EC50 [2]: 32 nM

CN1CCCc2c1nc(N1CCN(Cc3ncccc3Br)CC1)[nH]c2=O [Example 3, 2-[4-[(3-Bromo-2-pyridyl)methyl]piperazin-1-yl]-8-methyl-3,5,6,7-tetrahydropyrido[2,3-d]pyrimidin-4-one]
IC50 [1]: 8.66 nM | EC50 [2]: 18.4 nM

CN1CCCc2c1nc(N1CCN(Cc3ncccc3O)CC1)[nH]c2=O [Example 4, 2-[4-[(3-Hydroxy-2-pyridyl)methyl]piperazin-1-yl]-8-methyl-3,5,6,7-tetrahydropyrido[2,3-d]pyrimidin-4-one]
IC50 [1]: 6.71 nM | EC50 [2]: 26.9 nM

CC(c1ncc(F)cn1)N1CCN(c2nc3c(c(=O)[nH]2)CCCN3C)CC1 (stereo not shown) [Example 5]
IC50 (hTNKS1): 85.2 nM

CCC(c1ncccn1)N1CCN(c2nc3c(c(=O)[nH]2)CCCN3C)CC1 (stereo not shown) [Example 10, 8-Methyl-2-[4-(1-pyrimidin-2-ylpropyl)piperazin-1-yl]-3,5,6,7-tetrahydropyrido[2,3-d]pyrimidin-4-one]
IC50 [1]: 171 nM | EC50 [2]: 590 nM

COc1ccnc(CN2CCN(c3nc4c(c(=O)[nH]3)CCCN4C)CC2)n1 [Example 13, 2-[4-[(4-methoxypyrimidin-2-yl)methyl]piperazin-1-yl]-8-methyl-3,5,6,7-tetrahydropyrido[2,3-d]pyrimidin-4-one]
IC50 [1]: 23 nM | EC50 [2]: 101 nM

Cc1ccnc(CN2CCN(c3nc4c(c(=O)[nH]3)CCCN4C)CC2)n1 [Example 14, 8-Methyl-2-[4-[(4-methylpyrimidin-2-yl)methyl]piperazin-1-yl]-3,5,6,7-tetrahydropyrido[2,3-d]pyrimidin-4-one]
IC50 [1]: 9.35 nM | EC50 [2]: 52.7 nM

CN1CCCc2c1nc(N1CCN(Cc3ncc(C(F)(F)F)cn3)CC1)[nH]c2=O [Example 15, 8-Methyl-2-[4-[[5-(trifluoromethyl)pyrimidin-2-yl]methyl)piperazin-1-yl]-3,5,6,7-tetrahydropyrido[2,3-d]pyrimidin-4-one]
IC50 [1]: 15.4 nM | EC50 [2]: 115 nM

CN1CCCc2c1nc(N1CCN(Cc3nccc(C(F)(F)F)n3)CC1)[nH]c2=O [Example 16, 8-Methyl-2-[4-[[4-(trifluoromethyl)pyrimidin-2-yl]methyl]piperazin-1-yl]-3,5,6,7-tetrahydropyrido[2,3-d]pyrimidin-4-one]
IC50 [1]: 102 nM | EC50 [2]: 509 nM

Cc1cnc(CN2CCN(c3nc4c(c(=O)[nH]3)CCCN4C)CC2)nc1 [Example 17, 8-Methyl-2-[4-[(5-methylpyrimidin-2-yl)methyl]piperazin-1-yl]-3,5,6,7-tetrahydropyrido[2,3-d]pyrimidin-4-one]
IC50 [1]: 37.3 nM | EC50 [2]: 198 nM

CN1CCCc2c1nc(N1CCN(Cc3ncc(Cl)cn3)CC1)[nH]c2=O [Example 18, 2-[4-[(5-Chloropyrimidin-2-yl)methyl]piperazin-1-yl]-8-methyl-3,5,6,7-tetrahydropyrido[2,3-d]pyrimidin-4-one]
IC50 [1]: 156 nM | EC50 [2]: 901 nM

CN1CCCc2c1nc(N1CCN(Cc3ccccn3)CC1)[nH]c2=O [Example 19, 8-Methyl-2-[4-(2-pyridylmethyl)piperazin-1-yl]-3,5,6,7-tetrahydropyrido[2,3-d]pyrimidin-4-one]
IC50 [1]: 12.6 nM | EC50 [2]: 62.6 nM

CN1CCCc2c1nc(N1CCN(Cc3ncccc3F)CC1)[nH]c2=O [Example 20, 2-[4-[(3-Fluoro-2-pyridyl)methyl]piperazin-1-yl]-8-methyl-3,5,6,7-tetrahydropyrido[2,3-d]pyrimidin-4-one]
IC50 [1]: 22.2 nM | EC50 [2]: 77.9 nM

CN1CCCc2c1nc(N1CCN(Cc3ccccc3Cl)CC1)[nH]c2=O [Example 38, 2-[4-[(2-Chlorophenyl)methyl]piperazin-1-yl]-8-methyl-3,5,6,7-tetrahydropyrido[2,3-d]pyrimidin-4-one]
IC50 [1]: 22.2 nM | EC50 [2]: 34.8 nM

CN1CCCc2c1nc(N1CCN(Cc3ncc(F)cn3)CC1)[nH]c2=O [Example 39, 2-[4-[(5-Fluoropyrimidin-2-yl)methyl]piperazin-1-yl]-8-methyl-3,5,6,7-tetrahydropyrido [2,3-d]pyrimidin-4-one]
IC50 [1]: 20.6 nM | EC50 [2]: 181 nM

CN1CCCc2c1nc(N1CCN(Cc3ncccc3C#N)CC1)[nH]c2=O [Example 40, 2-[[4-(8-Methyl-4-oxo-3,5,6,7-tetrahydropyrido[2,3-d]pyrimidin-2-yl)piperazin-1-yl]methyl]pyridine-3-carbonitrile]
IC50 [1]: 6.95 nM | EC50 [2]: 39.8 nM

CN1CCCc2c1nc(N1CCN(Cc3nccc(Cl)n3)CC1)[nH]c2=O [Example 41, 2-[4-[(4-Chloropyrimidin-2-yl)methyl]piperazin-1-yl]-8-methyl-3,5,6,7-tetrahydropyrido[2,3-d]pyrimidin-4-one]
EC50 [2]: 61.6 nM

CN1CCCc2c1nc(N1CCN(Cc3cnccn3)CC1)[nH]c2=O [Example 42, 8-Methyl-2-[4-(pyrazin-2-ylmethyl)piperazin-1-yl]-3,5,6,7-tetrahydropyrido[2,3-d]pyrimidin-4-one]
IC50 [1]: 22 nM | EC50 [2]: 141 nM

CN1CCCc2c1nc(N1CCN(Cc3nccnc3Cl)CC1)[nH]c2=O [Example 43, 2-[4-[(3-Chloropyrazin-2-yl)methyl]piperazin-l-yl]-8-methyl-3,5,6,7-tetrahydropyrido[2,3-d]pyrimidin-4-one]
EC50 [2]: 74.5 nM

Cc1nccnc1CN1CCN(c2nc3c(c(=O)[nH]2)CCCN3C)CC1 [Example 44, 8-Methyl-2-[4-[(3-methyl-pyrazin-2-yl)methyl]piperazin-1-yl]-3,5,6,7-tetrahydropyrido[2,3-d]pyrimidin-4-one]
IC50 [1]: 11.2 nM | EC50 [2]: 118 nM

CN1CCCc2c1nc(N1CCN(Cc3ncc(F)cc3F)CC1)[nH]c2=O [Example 45, 2-[4-[(3,5-Difluoro-2-pyridyl)methyl]piperazin-1-yl]-8-methyl-3,5,6,7-tetrahydropyrido[2,3-d]pyrimidin-4-one]
IC50 [1]: 18.8 nM | EC50 [2]: 144 nM
